Measured values published in US12655142B2 (Merck Patent GmbH, priority 2019, dated 2026).

How the values were obtained:
c-Kit(V654A) = target: T1, c-Kit(V654A) (Homo sapiens, UniProt P10721, V654A); assay: c-Kit(V654A) assay (33P-ATP filter binding kinase assay); assay type: biochemical; conditions: recombinant human c-Kit aa 544-end V654A, ATP 200 μM
T1 construct: recombinant human c-Kit, amino acids 544-end containing the V654A mutation; GST (N)
Experimental: c-Kit(V654A) (N-terminal GST-tagged, recombinant human c-Kit, amino acids 544-end containing the V654A mutation) is incubated with 8 mM MOPS pH 7.0, 0.2 mM EDTA, 250 μM GGMEDIYEFMGGKKK, 10 mM MgAcetate and [gamma-33P-ATP] (specific activity approx. 500 cpm/pmol, concentration 200 μM). The reaction is initiated by the addition of the MgATP mix. After incubation for 40 minutes at room temperature, the reaction is stopped by the addition of 3% phosphoric acid solution. 10 μL of the reaction is then spotted onto a P30 filtermat and washed three times for 5 minutes in 75 mM phosphoric acid and once in methanol prior to drying and scintillation counting.

[1] = target: T2, GIST430/654 cell line expressing mutated constitutively active cKIT receptor tyrosine kinase (Δ560-576 deletion and V654A point mutation) (Homo sapiens, UniProt P10721, DEL560-576/V654A); assay: Cellular cKIT autophosphorylation (phospho-Y307-cKIT, Luminex bead assay) in GIST430/654 cells; assay type: cell-based; conditions: compounds 45 min, read-out: GIST 430/654 IC50
T2 construct: endogenous in cells; host or cells: GIST430/654 cells
T2 sequence (P10721 with tags, fused parts or gaps DEL560-576/V654A): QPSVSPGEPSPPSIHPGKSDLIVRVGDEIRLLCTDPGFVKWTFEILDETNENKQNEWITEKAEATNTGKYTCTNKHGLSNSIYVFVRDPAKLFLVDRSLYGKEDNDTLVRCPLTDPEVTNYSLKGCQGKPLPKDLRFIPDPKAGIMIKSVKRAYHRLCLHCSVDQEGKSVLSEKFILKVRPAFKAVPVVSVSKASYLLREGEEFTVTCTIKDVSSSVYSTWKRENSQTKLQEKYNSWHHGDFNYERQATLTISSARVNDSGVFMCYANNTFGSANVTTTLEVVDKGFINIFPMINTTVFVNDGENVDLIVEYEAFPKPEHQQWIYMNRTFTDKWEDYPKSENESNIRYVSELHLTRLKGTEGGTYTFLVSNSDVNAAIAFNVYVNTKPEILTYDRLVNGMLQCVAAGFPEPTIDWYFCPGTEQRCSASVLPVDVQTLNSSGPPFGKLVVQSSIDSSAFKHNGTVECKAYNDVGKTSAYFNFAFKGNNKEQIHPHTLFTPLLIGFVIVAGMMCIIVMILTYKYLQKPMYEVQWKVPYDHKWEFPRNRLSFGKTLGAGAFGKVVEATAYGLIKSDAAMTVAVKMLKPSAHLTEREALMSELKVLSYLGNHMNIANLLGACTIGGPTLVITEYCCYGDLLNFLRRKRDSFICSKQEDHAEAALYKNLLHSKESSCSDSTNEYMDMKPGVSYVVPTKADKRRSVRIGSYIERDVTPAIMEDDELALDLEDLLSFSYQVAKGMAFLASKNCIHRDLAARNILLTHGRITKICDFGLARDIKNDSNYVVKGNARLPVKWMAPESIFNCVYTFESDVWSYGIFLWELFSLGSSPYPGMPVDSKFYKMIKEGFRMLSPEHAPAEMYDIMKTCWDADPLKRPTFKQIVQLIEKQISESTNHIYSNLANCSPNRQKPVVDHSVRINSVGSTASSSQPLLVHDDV
Experimental: Assay Principle for Cellular Testing of cKIT Mutant Inhibitors
The GIST430 cell line expressing constitutive active cKIT receptor tyrosine kinase (Δ560-576 deletion) and the Imatinib resistant GIST430/654 cell line expressing mutated constitutively active cKIT receptor tyrosine kinase (Δ560-576 deletion and V654A point mutation) were employed for assessing cellular potency of compounds. Cellular activity of mutant cKIT was determined by the degree of cKIT autophosphorylation at tyrosine 307 using a Luminex-based bead assay. GIST430 cells were plated with 22,000 cells per well of a 96-well plate in 100 μl medium (85% IMDM/15% FCS) and GIST430/654 cells were plated with 25,000 cells per well of a 96-well plate in 100 μl medium (85% IMDM/15% FCS supplemented with 100 nM Imatinib). At the following day compounds were added in a serial dilution for 45 min. Then, cells were lysed with 90 μl lysis buffer (20 mM Hepes pH 7.5, 200 mM NaCl, 1.5 mM MgCl2×6H2O, 0.4 mM EDTA, 1% Triton-X-100, 1% Phosphatase-Inhibitor II, 20 mM β-Glycerolphosphat, 0.1% Protease-Inhibitor Cocktail III, 0.01% Benzonase) and lysates were cleared by centrifugation through a 96-well filter plate (0.65 μm). Samples were incubated with Luminex-beads which were coupled with an anti-total cKIT antibody overnight at 4° C. under gentle agitation. For detection of phospho-Y307-cKIT a phosphospecific antibody and a species-specific PE-labeled secondary antibody were added. The amount of phospho-Y307-cKIT was determined in a Luminex 200 instrument measuring 100 events per well within 60 seconds.
Counts from samples treated with compounds were calculated as percent of control from solvent treated (0.3% DMSO) samples. Dose-response curves were fitted and IC50 values were determined using Genedata Screener software.

T1 sequence (P10721 544-976 V654A): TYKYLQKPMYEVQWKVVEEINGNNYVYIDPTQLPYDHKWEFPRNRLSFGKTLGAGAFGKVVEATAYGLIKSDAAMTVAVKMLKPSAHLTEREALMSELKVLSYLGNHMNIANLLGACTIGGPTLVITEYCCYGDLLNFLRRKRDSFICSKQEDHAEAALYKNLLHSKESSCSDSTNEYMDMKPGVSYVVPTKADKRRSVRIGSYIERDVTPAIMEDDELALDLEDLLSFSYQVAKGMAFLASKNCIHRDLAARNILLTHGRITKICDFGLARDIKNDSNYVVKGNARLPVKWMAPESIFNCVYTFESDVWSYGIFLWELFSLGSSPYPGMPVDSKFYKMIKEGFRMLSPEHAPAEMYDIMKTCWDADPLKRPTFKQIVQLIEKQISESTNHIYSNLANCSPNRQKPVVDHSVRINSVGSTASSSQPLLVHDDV

Compound: c1cn(-c2ccc(CNc3cc(-c4cnc5cc(OCCN6CCCC6)ccn45)ncn3)cc2)nn1 [A70, {6-[7-(2-pyrrolidin-1-yl-ethoxy)-imidazo[1,2-a]pyridin-3-yl]-pyrimidin-4-yl}-(4-[1,2,3]triazol-1-yl-benzyl)-amine]
- IC50 (c-Kit(V654A)): 21 nM
- IC50 [1]: 230 nM

Compound: Cn1cc(-c2ccc(CNc3cc(-c4cnc5cc(OCc6ccccc6)ccn45)ncn3)cc2)cn1 [A72, 6-[7-(benzyloxy)imidazo[1,2-a]pyridin-3-yl]-N-{[4-(1-methyl-1H-pyrazol-4-yl)phenyl]methyl}pyrimidin-4-amine]
- IC50 (c-Kit(V654A)): 72 nM
- IC50 [1]: 540 nM

Compound: Cn1cc(-c2ccc(CNc3cc(-c4cnc5cc([N+](=O)[O-])ccn45)ncn3)cc2)cn1 [A81, N-{[4-(1-methyl-1H-pyrazol-4-yl)phenyl]methyl}-6-{7-nitroimidazo[1,2-a]pyridin-3-yl}pyrimidin-4-amine]
- IC50 (c-Kit(V654A)): 27 nM
- IC50 [1]: 970 nM

Compound: Cn1cc(-c2ccc(CNc3cc(-c4cnc5cc(Cl)ccn45)ncn3)cc2)cn1 [A82, 6-{7-chloroimidazo[1,2-a]pyridin-3-yl}-N-{[4-(1-methyl-1H-pyrazol-4-yl)phenyl]methyl}pyrimidin-4-amine]
- IC50 (c-Kit(V654A)): 9.2 nM
- IC50 [1]: 270 nM

Compound: CN1CCN(CCOc2ccn3c(-c4cc(OCc5ccc(-c6cnn(C)c6)cc5)ncn4)cnc3c2)CC1 [A86, 7-[2-(4-methyl-piperazin-1-yl)-ethoxy]-3-{6-[4-(1-methyl-1H-pyrazol-4-yl)-benzyloxy]-pyrimidin-4-yl}-imidazo[1,2-a]pyridine]
- IC50 (c-Kit(V654A)): 5 nM
- IC50 [1]: 110 nM

Compound: Cn1cc(-c2ccc(COc3cc(-c4cnc5cc(OCCN6CCCC6)ccn45)ncn3)cc2)cn1 [A87, 3-{6-[4-(1-methyl-1H-pyrazol-4-yl)-benzyloxy]-pyrimidin-4-yl}-7-(2-pyrrolidin-1-yl-ethoxy)-imidazo[1,2-a]pyridine]
- IC50 (c-Kit(V654A)): 11 nM
- IC50 [1]: 500 nM

Compound: Cn1cc(-c2ccc(CNc3cc(-c4cnc5cc(OCCCN6CCOCC6=O)ccn45)ncn3)cc2)cn1 [A88, 4-[3-({3-[6-({[4-(1-methyl-1H-pyrazol-4-yl)phenyl]methyl}amino)pyrimidin-4-yl]imidazo[1,2-a]pyridin-7-yl}oxy)propyl]morpholin-3-one]
- IC50 (c-Kit(V654A)): 12 nM
- IC50 [1]: 89 nM

Compound: Cn1cc(-c2ccc(CNc3cc(-c4cnc5cc(OCCN6CCC(F)C6)ccn45)ncn3)cc2)cn1 (stereo not drawn) [A89, 6-{7-[2-(3-fluoropyrrolidin-1-yl)ethoxy]imidazo[1,2-a]pyridin-3-yl}-N-{[4-(1-methyl-1H-pyrazol-4-yl)phenyl]methyl}pyrimidin-4-amine]
- IC50 (c-Kit(V654A)): 8.6 nM
- IC50 [1]: 82 nM

Compound: Cn1cc(-c2ccc(COc3cc(-c4cnc5cc(OCCN6CCC(F)(F)C6)ccn45)ncn3)cc2)cn1 [A90, 7-[2-(3,3-difluoro-pyrrolidin-1-yl)-ethoxy]-3-{6-[4-(1-methyl-1H-pyrazol-4-yl)-benzyloxy]-pyrimidin-4-yl}-imidazo[1,2-a]pyridine]
- IC50 (c-Kit(V654A)): 10 nM
- IC50 [1]: 260 nM

Compound: Cn1cc(-c2ccc(CNc3cc(-c4cnc5cc(OCCN6CCOCC6=O)ccn45)ncn3)cc2)cn1 [A92, 4-[2-({3-[6-({[4-(1-methyl-1H-pyrazol-4-yl)phenyl]methyl}amino)pyrimidin-4-yl]imidazo[1,2-a]pyridin-7-yl}oxy)ethyl]morpholin-3-one]
- IC50 (c-Kit(V654A)): 8.2 nM
- IC50 [1]: 87 nM

Compound: CN1CCN(CCOc2ccn3c(-c4cc(NCc5ccc(-c6cnn(C)c6)cc5)ncn4)cnc3c2)CC1=O [A93, 1-methyl-4-[2-({3-[6-({[4-(1-methyl-1H-pyrazol-4-yl)phenyl]methyl}amino)pyrimidin-4-yl]imidazo[1,2-a]pyridin-7-yl}oxy)ethyl]piperazin-2-one]
- IC50 (c-Kit(V654A)): 13 nM
- IC50 [1]: 110 nM

Compound: CN1CCN(CCCOc2ccn3c(-c4cc(NCc5ccc(-c6cnn(C)c6)cc5)ncn4)cnc3c2)CC1 [A94, N-{[4-(1-methyl-1H-pyrazol-4-yl)phenyl]methyl}-6-{7-[3-(4-methylpiperazin-1-yl)propoxy]imidazo[1,2-a]pyridin-3-yl}pyrimidin-4-amine]
- IC50 (c-Kit(V654A)): 6.8 nM
- IC50 [1]: 64 nM

Compound: Cn1cc(-c2ccc(CNc3cc(-c4cnc5cc(OCCN6CCN(C7COC7)CC6=O)ccn45)ncn3)cc2)cn1 [A95, 1-[2-({3-[6-({[4-(1-methyl-1H-pyrazol-4-yl)phenyl]methyl}amino)pyrimidin-4-yl]imidazo[1,2-a]pyridin-7-yl}oxy)ethyl]-4-(oxetan-3-yl)piperazin-2-one]
- IC50 (c-Kit(V654A)): 9.8 nM
- IC50 [1]: 210 nM

Compound: CN1CCN(CCCOc2ccn3c(-c4cc(NCc5ccc(-c6cnn(C)n6)cc5)ncn4)cnc3c2)CC1 [A96, N-{[4-(2-methyl-2H-1,2,3-triazol-4-yl)phenyl]methyl}-6-{7-[3-(4-methylpiperazin-1-yl)propoxy]imidazo[1,2-a]pyridin-3-yl}pyrimidin-4-amine]
- IC50 (c-Kit(V654A)): 2.9 nM
- IC50 [1]: 31 nM

Compound: Cn1ncc(-c2ccc(CNc3cc(-c4cnc5cc(OCCc6nccn6C)ccn45)ncn3)cc2)n1 [A98, (6-{7-[2-(1-methyl-1H-imidazol-2-yl)-ethoxy]-imidazo[1,2-a]pyridin-3-yl}-pyrimidin-4-yl)-[4-(2-methyl-2H-[1,2,3]triazol-4-yl)-benzyl]-amine]
- IC50 (c-Kit(V654A)): 8.3 nM
- IC50 [1]: 98 nM

Compound: Cn1cc(-c2ccc(CNc3cc(-c4cnc5cc(OCCCN6CCC(F)(F)C6)ccn45)ncn3)cc2)cn1 [A101, 6-{7-[3-(3,3-difluoropyrrolidin-1-yl)propoxy]imidazo[1,2-a]pyridin-3-yl}-N-{[4-(1-methyl-1H-pyrazol-4-yl)phenyl]methyl}pyrimidin-4-amine]
- IC50 (c-Kit(V654A)): 22 nM
- IC50 [1]: 150 nM

Compound: Cn1cc(-c2ccc(CNc3cc(-c4cnc5cc(OCCN6CC7CC(C6)O7)ccn45)ncn3)cc2)cn1 [A103, [4-(1-methyl-1H-pyrazol-4-yl)-benzyl]-(6-{7-[2-(6-oxa-3-aza-bicyclo[3.1.1]hept-3-yl)-ethoxy]-imidazo[1,2-a]pyridin-3-yl}-pyrimidin-4-yl)-amine]
- IC50 (c-Kit(V654A)): 9.5 nM
- IC50 [1]: 120 nM

Compound: Cn1ncc(-c2ccc(CNc3cc(-c4cnc5cc(OCCN6CCC(F)(F)C6)ccn45)ncn3)cc2)n1 [A105, (6-{7-[2-(3,3-difluoro-pyrrolidin-1-yl)-ethoxy]-imidazo[1,2-a]pyridin-3-yl}-pyrimidin-4-yl)-[4-(2-methyl-2H-[1,2,3]triazol-4-yl)-benzyl]-amine]
- IC50 (c-Kit(V654A)): 9.5 nM
- IC50 [1]: 120 nM

Compound: Cn1ncc(-c2ccc(CNc3cc(-c4cnc5cc(OCc6ccccn6)ccn45)ncn3)cc2)n1 [A106, [4-(2-methyl-2H-[1,2,3]triazol-4-yl)-benzyl]-{6-[7-(pyridin-2-ylmethoxy)-imidazo[1,2-a]pyridin-3-yl]-pyrimidin-4-yl}-amine]
- IC50 (c-Kit(V654A)): 9.5 nM
- IC50 [1]: 370 nM

Compound: Cn1cc(-c2ccc(CNc3cc(-c4cnc5cc(OCC(C)(C)N6CCOCC6)ccn45)ncn3)cc2)cn1 [A107, {6-[7-(2-methyl-2-morpholin-4-yl-propoxy)-imidazo[1,2-a]pyridin-3-yl]-pyrimidin-4-yl}-[4-(1-methyl-1H-pyrazol-4-yl)-benzyl]-amine]
- IC50 (c-Kit(V654A)): 13 nM
- IC50 [1]: 120 nM

Compound: Cn1ncc(-c2ccc(CNc3cc(-c4cnc5cc(OCC(C)(C)N6CCOCC6)ccn45)ncn3)cc2)n1 [A109, {6-[7-(2-methyl-2-morpholin-4-yl-propoxy)-imidazo[1,2-a]pyridin-3-yl]-pyrimidin-4-yl}-[4-(2-methyl-2H-[1,2,3]triazol-4-yl)-benzyl]-amine]
- IC50 (c-Kit(V654A)): 7.5 nM
- IC50 [1]: 79 nM
